From article PMC6013238, “Development of novel NEMO-binding domain mimetics for inhibiting IKK/NF-κB activation” (PLoS Biology, 2018)
Several values for one entry are separate records, joined by “and”; a condition that tells them apart may be missing. Equal values may be shown once.

Experiments:
HEK293 cells = conditions: Fig 2D; 100 μM, 24 h
Protocol: (A) HEK293 cells stably expressing NF-κB luciferase reporter were pretreated with indicated small molecules at 100 μM for 30 min, followed by stimulation with TNF-α (10 ng/ml) for 3 h. Luciferase activity was normalized to untreated stimulated control cells. […] (B) The dose-dependent response of ZINC12909780 was tested by NF-κB luciferase assay in HEK293 cells. Three independent experiments were performed, and data shown represent mean +/− SD. […] (D) HEK293 cells were cultured in the presence of 100 μM of indicated derivatives for 24 h, and cell survival was determined by MTT assay. Cell viability was calculated by normalizing to untreated cells. (E) Dose-dependent inhibitory effects were determined for ZINC5 at 0, 25, 50, and 100 μM by using NF-κB luciferase assay. (F) HEK293 were cultivated in the presence of ZINC5 at listed concentrations for 24 h, and cell survival was assessed by MTT assay. Data represent the mean +/− SD from 4–5 independent experiments. *P < 0.05; **P < 0.01; ***P < 0.001. Underlying data can be found in S1 Data. HEK293, human embryonic kidney 293 cells; MTT, 3-(4,5-dimethylthiazol-2-yl)-2,5-dephenyltetrazolium bromide colormetric assay for assessing cell metabolic activity; NF-κB, nuclear factor κB; TNF-α; tumor necrosis factor α; SD, standard deviation.
HEK293 cells were grown in a 96-well plate at 3 × 10^4 cells/well in triplicate and treated with DMSO or listed small molecules at indicated concentrations for 24 h. Cell survival was determined by adding 20 μl of 5 mg/ml MTT (thiazolyl blue tetrazolium bromide) to each well, followed by incubation in 37 °C for 3 h. Media were removed, and purple formazan was dissolved in 100 uL of DMSO. Absorbance was measured at 590 nm on a microplate reader (PerkinElmer, Waltham, MA). Cell viability was calculated by normalizing values to untreated controls.

[1] = Hematological measures in acutely treated mice; assay type: in vivo, mouse; conditions: SR12343 30 mg/kg i.p. 30 min before LPS 10 mg/kg, 2 h; mean ± SD
Protocol: To determine their NF-κB inhibitory effects in vivo, SR12343 and SR12460 were tested in an acute model of LPS-induced systemic endotoxemia. C57BL/6J mice were pretreated with vehicle control, 8K-NBD peptide, or NBD mimetics at 10 mg/kg for 30 min, followed by LPS induction at 10 mg/kg (Fig 6B). Lung and liver were harvested 2–4 h post treatment for qRT-PCR analysis of NF-κB target genes. […] Despite lower plasma and tissue concentrations of SR12343 compared to SR12460, its inhibition of NF-κB/IKK in liver and lung were greater than that of SR12460 (Fig 6C). Similarly, acute treatment with SR12343 also affected the LPS-induced expression of NF-κB target genes at protein level. The extent of phosphorylation of IκBα and the levels of COX-2 were reduced in lung and liver tissues treated with SR12343 (Fig 6D and 6E). […] However, no significant differences in lung histopathology were observed. Finally, there was a slight reduction in the number of white blood cells and neutrophils in the SR12343-treated group (Table 2).
Nine mice (male; C57BL/6, 9–13 wk) were randomly divided into 3 groups with 3 mice in each group. Mice were injected i.p. with vehicle (DMSO:Tween80:H2O, 10:10:80) or small-molecule SR12343 (30 mg/kg) for 30 min and then injected i.p. with saline (1 ml/kg) or LPS (10 mg/kg in saline). After 2 h, mice were euthanized by CO2 asphyxiation prior to blood sampling via cardiac puncture. The blood from each mouse was put into 2 collection tubes with coagulant or anticoagulant heparin (approximately 0.6 mL each). The samples in the tubes coated with the anticoagulant heparin were hand-mixed several times and placed on wet ice for hematological analysis using an automatic hematology analyzer (Hemavet 950FS; Drew Scientific, Miami Lakes, FL). Samples in tubes containing no anticoagulant were allowed to clot before centrifugation and submission for serum biochemical analysis using the VetScan VS2 Analyzer with the Comprehensive Diagnostic Profile reagent rotor (Abaxis, Union City, CA). The ALT, AST, and […] activities in the serum were quantitated by a colorimetric, enzymatic method using the Clinical Chemistry Analyzer Cobas c311 (Roche Diagnostics, Risch-Rotkreuz, Switzerland) as per the manufacturer’s instructions.

## O=C(COC(=O)Cc1ccccc1F)Nc1ccc(Cl)cn1 [ZINC5]
HEK293 cells
  Cell viability normalized to untreated cells (MTT): 95 and 80 and 84 and 81

## O=C(CNc1ccc(Cl)cn1)NCCc1cccc(Br)c1 [SR12343]
[1]
  Hematocrit: 53.0 ± 1.5%
  Hemoglobin: 15.3 ± 0.4 g/dL
  Mean corpuscular hemoglobin: 14.8 ± 0.2 pg
  Mean corpuscular hemoglobin concentration: 28.9 ± 0.2 g/dL
  Mean corpuscular volume: 51.2 ± 1.0 fL
  Mean platelet volume: 5.7 ± 0.8 fL
  Platelets: 170.7 ± 64.0 K/μL
  Red blood cells: 10.4 ± 0.3 M/μL
  Red cell distribution width: 15.0 ± 0.2%
  White blood cells: 7.4 ± 3.3 K/μL
